Broadly, the pIC50 is −log10 of the IC50, conventionally taken in molar units. As usually defined, the pEC50 is −log10 of the EC50, conventionally taken in molar units.

28 compounds from ChEMBL document CHEMBL1149697, “Identification of dissociated non-steroidal glucocorticoid receptor agonists” (Bioorg Med Chem Lett, 2007) can be followed below.

The target in assay [1] is T1, Glucocorticoid receptor (Homo sapiens, UniProt P04150).
T1 sequence (P04150 whole entry): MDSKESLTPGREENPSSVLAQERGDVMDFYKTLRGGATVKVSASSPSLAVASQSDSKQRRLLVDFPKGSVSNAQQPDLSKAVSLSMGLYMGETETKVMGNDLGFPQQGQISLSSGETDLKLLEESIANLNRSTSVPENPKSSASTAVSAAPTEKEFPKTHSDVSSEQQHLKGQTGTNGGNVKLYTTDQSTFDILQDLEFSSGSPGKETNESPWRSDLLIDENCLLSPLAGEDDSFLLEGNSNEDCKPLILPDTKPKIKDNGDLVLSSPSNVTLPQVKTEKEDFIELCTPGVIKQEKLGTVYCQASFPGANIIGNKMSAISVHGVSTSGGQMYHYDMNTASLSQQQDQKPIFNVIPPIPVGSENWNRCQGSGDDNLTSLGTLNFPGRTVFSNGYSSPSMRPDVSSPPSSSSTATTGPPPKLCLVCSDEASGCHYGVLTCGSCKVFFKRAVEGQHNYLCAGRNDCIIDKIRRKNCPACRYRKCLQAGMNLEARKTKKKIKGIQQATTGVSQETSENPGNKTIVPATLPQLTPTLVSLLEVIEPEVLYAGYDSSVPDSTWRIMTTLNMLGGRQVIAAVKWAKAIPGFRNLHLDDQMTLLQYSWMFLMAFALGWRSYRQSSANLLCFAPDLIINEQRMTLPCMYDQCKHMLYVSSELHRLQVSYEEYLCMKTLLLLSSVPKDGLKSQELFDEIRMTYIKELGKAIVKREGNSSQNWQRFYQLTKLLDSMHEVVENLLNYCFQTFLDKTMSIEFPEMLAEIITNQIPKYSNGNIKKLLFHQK

Assay [2] deals with T2, Progesterone receptor (Homo sapiens, UniProt P06401).
T2 sequence (P06401 whole entry): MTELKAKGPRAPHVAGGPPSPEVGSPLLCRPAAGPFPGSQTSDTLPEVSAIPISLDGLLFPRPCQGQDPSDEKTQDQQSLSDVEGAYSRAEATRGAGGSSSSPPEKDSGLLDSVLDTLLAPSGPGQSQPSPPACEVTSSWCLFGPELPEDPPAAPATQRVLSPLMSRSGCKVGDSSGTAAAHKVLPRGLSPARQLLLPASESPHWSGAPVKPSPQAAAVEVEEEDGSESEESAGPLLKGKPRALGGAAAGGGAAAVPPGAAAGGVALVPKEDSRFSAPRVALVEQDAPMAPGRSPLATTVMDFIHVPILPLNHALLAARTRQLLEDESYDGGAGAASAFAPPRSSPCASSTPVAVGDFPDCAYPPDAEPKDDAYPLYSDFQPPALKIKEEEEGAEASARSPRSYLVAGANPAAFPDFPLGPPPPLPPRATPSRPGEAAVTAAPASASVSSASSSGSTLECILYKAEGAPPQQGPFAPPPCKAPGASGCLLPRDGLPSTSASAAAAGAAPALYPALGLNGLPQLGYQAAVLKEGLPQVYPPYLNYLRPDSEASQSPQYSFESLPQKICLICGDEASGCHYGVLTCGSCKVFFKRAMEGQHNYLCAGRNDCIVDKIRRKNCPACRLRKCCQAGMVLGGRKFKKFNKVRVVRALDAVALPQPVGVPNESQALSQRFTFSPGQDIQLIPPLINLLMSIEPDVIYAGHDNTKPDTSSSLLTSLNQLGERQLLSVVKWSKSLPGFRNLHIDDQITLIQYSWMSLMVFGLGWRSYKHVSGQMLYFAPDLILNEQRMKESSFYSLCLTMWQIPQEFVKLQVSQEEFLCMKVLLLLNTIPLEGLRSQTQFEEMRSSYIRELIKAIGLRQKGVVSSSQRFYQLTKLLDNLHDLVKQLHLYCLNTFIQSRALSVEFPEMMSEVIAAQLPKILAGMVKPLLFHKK
Put plainly: Displacement of TAMRA labeled mifepristone at human progesterone receptor in insect cell.

Assay [3] addresses T3, Mineralocorticoid receptor (Homo sapiens, UniProt P08235).
T3 sequence (P08235 whole entry): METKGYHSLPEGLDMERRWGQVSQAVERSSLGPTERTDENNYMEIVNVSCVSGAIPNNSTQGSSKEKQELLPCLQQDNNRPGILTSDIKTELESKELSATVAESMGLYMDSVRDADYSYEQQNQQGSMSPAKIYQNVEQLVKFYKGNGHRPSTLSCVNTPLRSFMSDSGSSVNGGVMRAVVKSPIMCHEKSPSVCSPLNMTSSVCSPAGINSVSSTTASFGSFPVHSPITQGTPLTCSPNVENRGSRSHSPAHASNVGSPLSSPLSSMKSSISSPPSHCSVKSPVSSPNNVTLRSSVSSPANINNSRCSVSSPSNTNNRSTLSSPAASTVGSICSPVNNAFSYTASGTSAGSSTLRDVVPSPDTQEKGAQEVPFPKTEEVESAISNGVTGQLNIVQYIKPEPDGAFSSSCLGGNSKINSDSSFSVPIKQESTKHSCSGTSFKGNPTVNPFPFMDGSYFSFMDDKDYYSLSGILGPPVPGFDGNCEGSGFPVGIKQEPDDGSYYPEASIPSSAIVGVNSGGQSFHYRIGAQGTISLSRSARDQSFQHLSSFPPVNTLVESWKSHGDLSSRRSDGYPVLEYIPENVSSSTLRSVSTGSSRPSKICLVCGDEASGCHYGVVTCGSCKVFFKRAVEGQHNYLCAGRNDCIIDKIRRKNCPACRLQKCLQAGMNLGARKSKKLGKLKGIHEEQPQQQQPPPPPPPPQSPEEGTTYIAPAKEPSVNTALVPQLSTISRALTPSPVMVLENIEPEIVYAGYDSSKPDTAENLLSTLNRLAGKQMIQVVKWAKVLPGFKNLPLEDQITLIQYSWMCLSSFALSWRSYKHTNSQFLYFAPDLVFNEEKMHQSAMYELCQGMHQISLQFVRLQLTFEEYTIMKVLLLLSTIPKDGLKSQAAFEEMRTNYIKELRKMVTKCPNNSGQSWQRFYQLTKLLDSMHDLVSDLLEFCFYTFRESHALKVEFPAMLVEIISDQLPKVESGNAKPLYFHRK
Put plainly: Displacement of TAMRA labeled dexamethasone at human mineralocorticoid receptor in insect cell.

Assay [4] concerns HFF. Kind of assay: Antiinflammatory activity assessed as inhibition of IL1 stimulated IL6 production in HFF cells by transrepression assay. Format: functional, cell-based. To be noted: Homo sapiens.
The test system of assay [5] is HFF. Kind of assay: Antiinflammatory activity assessed as upregulation of aromatase in HFF cells by transactivation assay. To be noted: Homo sapiens. The assay is classed as functional, cell-based.
The test system of assay [6] is HFF. Kind of assay: Antiinflammatory activity assessed as inhibition of IL6 production in HFF cells by transrepression assay relative to dexamethasone. Format: functional, Homo sapiens.
Assay [7] deals with HFF. Put plainly: Antiinflammatory activity assessed as upregulation of aromatase in HFF cells by transactivation assay relative to dexamethasone. The assay is classed as functional, Homo sapiens. More on the design: concentration or dose not given beside the values.

Molecules are shown by their SMILES. pEC50, pIC50: −log10 of the molar value. A value given as a limit tells only on which side of the number the result lay.

In the case of `COc1ccc(F)cc1C(C)(C)CC(O)(Cc1ccc(Cl)cc1)C(F)(F)F` (stereo not given), the values for the pIC50 in assay [1], in assay [2] and in assay [3] were 6.47, under 5.70 and 5.74, respectively.

Regarding `COc1ccc(F)cc1C(C)(C)CC(O)(Cc1c(C)ccc2ccccc12)C(F)(F)F` (stereo not given), the values for the negative logarithm of the IC50 (pIC50) in assay [1], in assay [2] and in assay [3] were 7.19, under 5.70 and 6.35, respectively.

For `COc1ccc(F)cc1C(C)(C)CC(O)(Cc1cc(Cl)ccc1Cl)C(F)(F)F` (stereo not given), the pIC50 is 7.35 in assay [1], under 5.70 in assay [2] and 6.27 in assay [3].

As to `C[C@@H]1C[C@H]2[C@@H]3CCC4=CC(=O)C=C[C@]4(C)[C@@]3(F)[C@@H](O)C[C@]2(C)[C@@]1(O)C(=O)CO` [DEXAMETHASONE], the pEC50 in assay [4] was 9.30; in assay [5] it was 8.70.

Take `COc1ccc(F)cc1C(C)(C)CC(O)(Cc1ccc(C#N)cc1)C(F)(F)F` (stereo not given): the pEC50 in assay [4] and in assay [5] was under 5.70 throughout. The Efficacy in assay [6] is reported as 0%. Moreover, the Activity in assay [7] was found to be 0%. Besides, the pIC50 in assay [1] is 7.52; in assay [2], 6.46; in assay [3] it was 6.29.

For `COc1ccc(F)cc1C(C)(C)CC(O)(Cc1c(Cl)cccc1Cl)C(F)(F)F` (stereo not given), the pIC50 is 6.24 in assay [1], under 5.70 in assay [2] and 5.96 in assay [3].

Take `COc1ccc(F)cc1C(C)(C)CC(O)(Cc1ccc(C)c2ccccc12)C(F)(F)F` (stereo not given): in assay [4], the negative-log EC50 (pEC50) is under 5.70. For the same compound, in assay [6], the Efficacy is recorded as 9%. Moreover, the pIC50 is 7.24 in assay [1], 5.92 in assay [2] and 5.98 in assay [3].

On to `COc1ccc(F)cc1C(C)(C)CC(O)(Cc1ccccc1Cl)C(F)(F)F` (stereo not given), for which the negative-log IC50 (pIC50) in assay [1] is 7.00; in assay [2], under 5.70; in assay [3], 6.15.

For `COc1ccc(F)cc1C(C)(C)CC(O)(Cc1ccccc1F)C(F)(F)F` (stereo not given), the pIC50 was 6.43 in assay [1], under 5.70 in assay [2] and 5.87 in assay [3].

On to `COc1ccc(F)cc1C(C)(C)CC(O)(CCc1ccccc1)C(F)(F)F` (stereo not given), for which the pIC50 in assay [1], in assay [2] and in assay [3] was under 5.89 in each case.

In the case of `COc1ccc(F)cc1C(C)(C)CC(O)(Cc1ccc(C)cc1)C(F)(F)F` (stereo not given), the negative-log IC50 (pIC50) in assay [1] was 6.02; in assay [2] it was under 5.70; in assay [3], under 5.70.

Regarding `COc1ccc(F)cc1C(C)(C)CC(O)(Cc1ccc(C=O)cc1)C(F)(F)F` (stereo not given), the pIC50 was 7.70 in assay [1], under 5.70 in assay [2] and 6.19 in assay [3].

With `COc1ccc(F)cc1C(C)(C)CC(O)(c1ccccc1)C(F)(F)F` (stereo not given), the pIC50 in assay [1] was under 5.80; in assay [2], under 5.80; in assay [3] it was 5.80.

Turning to `COc1ccc(F)cc1C(C)(C)CC(O)(Cc1ccccc1C)C(F)(F)F` (stereo not given), the values for the pIC50 in assay [1], in assay [2] and in assay [3] were 6.07, under 5.95 and under 5.95, respectively.

Consider `COc1ccc(F)cc1C(C)(C)CC(O)(Cc1cccc(Cl)c1)C(F)(F)F` (stereo not given), for which the results for the negative-log IC50 (pIC50) in assay [1], in assay [2] and in assay [3] were 6.26, under 5.70 and under 5.70, respectively.

Regarding `COc1ccc(F)cc1C(C)(C)CC(O)(Cc1cccc2ccccc12)C(F)(F)F` (stereo not given), the pIC50 was 6.92 in assay [1], under 5.70 in assay [2] and 5.85 in assay [3].

Consider `COc1ccc(F)cc1C(C)(C)CC(O)(Cc1ccc(C=O)cc1Cl)C(F)(F)F` (stereo not given), for which the negative-log IC50 (pIC50) in assay [1] was 7.72; in assay [2], 5.74; in assay [3], 6.46.

In the case of `COc1ccc(F)cc1C(C)(C)CC(O)(Cc1ccc2ccccc2c1)C(F)(F)F` (stereo not given), the values for the pIC50 in assay [1], in assay [2] and in assay [3] were 6.56, under 5.70 and under 5.70, respectively.

For the compound `COc1ccc(F)cc1C(C)(C)CC(O)(Cc1cccc(C#N)c1)C(F)(F)F` (stereo not given), the pIC50 was 7.09 in assay [1], under 5.70 in assay [2] and 6.40 in assay [3].

Regarding `COc1ccc(F)cc1C(C)(C)CC(O)(Cc1ccccc1Br)C(F)(F)F` (stereo not given), the negative-log IC50 (pIC50) in assay [1] was 6.69; in assay [2], under 6.29; in assay [3] it was under 6.29.

`COc1ccc(CC(O)(CC(C)(C)c2cc(F)ccc2OC)C(F)(F)F)cc1` (stereo not given): the pIC50 was 5.90 in assay [1], under 5.85 in assay [2] and under 5.85 in assay [3].

`COc1ccc(F)cc1C(C)(C)CC(O)(Cc1ccc(Cl)cc1Cl)C(F)(F)F` (stereo not given): the results for the negative-log IC50 (pIC50) in assay [1], in assay [2] and in assay [3] were 7.17, 6.18 and 6.06, respectively.

As for `COc1ccc(F)cc1C(C)(C)CC(O)(CCCc1ccccc1)C(F)(F)F` (stereo not given), the negative logarithm of the IC50 (pIC50) in assay [1] was 5.95; in assay [2], under 6.13; in assay [3], under 6.13.

For the compound `COc1ccc(F)cc1C(C)(C)CC(O)(Cc1ccccc1)C(F)(F)F` (stereo not given), the results for the pIC50 in assay [1], in assay [2] and in assay [3] were 6.21, under 5.89 and under 5.89, respectively.

`COc1ccc(F)cc1C(C)(C)CC(O)(Cc1cc(Cl)cc(Cl)c1)C(F)(F)F` (stereo not given): the pIC50 is 7.22 in assay [1], under 5.70 in assay [2] and 6.12 in assay [3].

`COc1ccc(F)cc1C(C)(C)CC(O)(Cc1cccc(Cl)c1Cl)C(F)(F)F` (stereo not given): the pIC50 is 7.12 in assay [1], 5.89 in assay [2] and 6.05 in assay [3].

In the case of `COc1ccc(F)cc1C(C)(C)CC(O)(Cc1cccc(C)c1)C(F)(F)F` (stereo not given), the pIC50 is 6.24 in assay [1], under 5.98 in assay [2] and under 5.98 in assay [3].

In the case of `COc1ccc(F)cc1C(C)(C)CC(O)(C(=O)Nc1ccc2c(=O)onc(C)c2c1)C(F)(F)F` (stereo not given), the pEC50 in assay [4] and in assay [5] was under 5.70 in each case. Further, the Efficacy in assay [6] turned out to be 20%. For the same compound, in assay [7], the Activity was determined as 0%.
